Source: US10717746B2, “Chemical compounds” (ASTRAZENECA AB, priority 2015, dated 2020)

Assays:
[1] = test system: phosphorylation of RNA Polymerase II (RNAPII) at the Ser2 site in MCF7 cells; assay: MCF7 pSer2 RNAPII MOA assay (immunofluorescence); assay type: cell-based; details: Homo sapiens, MCF7, 6 h, 6-hr treatment, read-out: p-Ser 2 RNAPII (IC50)
How it was run: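 Phospho-Ser2 RNAPII was measured by immunofluorescence (Alexa Fluor 488, DAPI counterstain) with plate cytometer read-out. Before staining, cells were fixed with paraformaldehyde and permeabilized with Triton. Exposure was 6 h at 37° C. to CDK9 inhibitors over 7 points (3 μM to 0.004 μM) in MCF7 cells seeded at 2500/well the previous day.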

MV411 cells = assay: MV411 caspase activity assay (Caspase-Glo 3/7); assay type: cell-based; details: Homo sapiens, MV4-11, 6 h, 6-hr treatment, caspase 3/7 induction
How it was run: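 MV411 AML cells (3000/well) were plated overnight, then treated with compound for 6 h at 37 °C. Caspase-3/7 activity was read as luminescence after 30 min with Caspase-Glo 3/7 reagent at room temperature.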

CDK9/CycT1 [2] = molecular target: T1, CDK9/CycT1 (Homo sapiens (Human), UniProt P50750); assay: CDK9 kinase assay, ATP concentration at Km (mobility shift, Caliper LC3000); assay type: biochemical; details: 6 μM ATP, 3 nM CDK9/CycT1; read-out: CDK9 ATP conc. at Km (IC50)
T1 sequence (P50750 whole entry): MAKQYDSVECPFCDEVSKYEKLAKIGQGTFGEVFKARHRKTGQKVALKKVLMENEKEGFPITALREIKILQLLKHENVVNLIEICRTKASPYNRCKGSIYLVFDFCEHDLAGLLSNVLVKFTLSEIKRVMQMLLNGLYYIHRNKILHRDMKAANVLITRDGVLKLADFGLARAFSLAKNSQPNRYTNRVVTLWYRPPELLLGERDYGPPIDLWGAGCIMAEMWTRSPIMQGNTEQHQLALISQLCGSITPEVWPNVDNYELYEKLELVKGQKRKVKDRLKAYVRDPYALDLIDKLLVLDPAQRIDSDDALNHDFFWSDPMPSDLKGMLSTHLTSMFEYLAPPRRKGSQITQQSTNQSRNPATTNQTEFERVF
T1 sequence (O60563 whole entry partner): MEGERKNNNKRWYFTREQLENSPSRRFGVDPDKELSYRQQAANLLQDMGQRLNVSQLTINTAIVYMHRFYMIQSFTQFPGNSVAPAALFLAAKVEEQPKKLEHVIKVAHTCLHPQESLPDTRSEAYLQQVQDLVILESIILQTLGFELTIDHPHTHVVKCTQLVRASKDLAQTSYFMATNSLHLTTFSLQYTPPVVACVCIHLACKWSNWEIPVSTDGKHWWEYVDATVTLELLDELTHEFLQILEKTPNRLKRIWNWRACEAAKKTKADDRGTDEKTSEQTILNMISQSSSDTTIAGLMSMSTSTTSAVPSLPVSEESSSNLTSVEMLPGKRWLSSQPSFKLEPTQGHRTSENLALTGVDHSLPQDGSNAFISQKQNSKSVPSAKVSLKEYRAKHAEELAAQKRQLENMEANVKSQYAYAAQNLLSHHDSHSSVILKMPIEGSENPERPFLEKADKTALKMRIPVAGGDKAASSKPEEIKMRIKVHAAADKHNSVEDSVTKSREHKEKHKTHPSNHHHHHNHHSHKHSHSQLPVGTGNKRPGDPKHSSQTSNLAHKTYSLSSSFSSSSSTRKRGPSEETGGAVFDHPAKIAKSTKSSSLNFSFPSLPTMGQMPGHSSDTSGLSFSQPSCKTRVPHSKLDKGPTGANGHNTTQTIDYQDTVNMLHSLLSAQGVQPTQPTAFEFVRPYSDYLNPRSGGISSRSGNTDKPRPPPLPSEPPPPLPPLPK
How it was run: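 […], compound sat 15 min with enzyme mix: 3 nM CDK9/CycT1, 1.5 µM FITC-GSRTPMY substrate, 6 µM ATP, pH 7.2 HEPES buffer.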

CDK9/CycT1 [3] = molecular target: T1, CDK9/CycT1; assay: CDK9 kinase assay, high ATP concentration (5 mM ATP); assay type: biochemical; details: 1.5 nM CDK9, read-out: CDK9 High ATP conc. (IC50)
How it was run: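 Caliper mobility-shift read-out of phosphorylated vs unphosphorylated FITC-peptide (1.5 μM), giving percent turnover. Final 1.5 nM CDK9/CycT1 and 5 mM ATP in 50 mM HEPES pH 7.2, 1 mM DTT, 10 mM MgCl2; compound preincubated 15 min, reaction 90 min at 25° C, stopped with EDTA.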

SMILES	IC50 [1]	IC50 (MV411 cells)	IC50 (CDK9/CycT1 [2])	IC50 (CDK9/CycT1 [3])
O=C(Nc1cc(-c2cnn3c2CCCC3)c(Cl)cn1)[C@H]1CCC[C@@H](NC(=O)[C@H]2CCCO2)C1 [Example 36, (R)—N-((1R,3S)-3-((5-chloro-4-(4,5,6,7-tetrahydropyrazolo[1,5-a]pyridin-3-yl)pyridin-2-yl)carbamoyl)cyclohexyl)tetrahydrofuran-2-carboxamide]	38 nM	104 nM	< 3 nM	39 nM
C[C@H](O)C(=O)N[C@@H]1CCC[C@H](C(=O)Nc2cc(-c3cnn4c3CCCC4)c(Cl)cn2)C1 [Example 37, (1S,3R)—N-(5-chloro-4-(4,5,6,7-tetrahydropyrazolo[1,5-a]pyridin-3-yl)pyridin-2-yl)-3-((S)-2-hydroxypropanamido)cyclohexanecarboxamide]	149 nM	177 nM	< 3 nM	38 nM
O=C(Nc1cc(-c2cnn3c2CCCC3)c(Cl)cn1)[C@H]1CCC[C@@H](NC(=O)[C@H]2CCOC2)C1 [Example 38, (S)—N-((1R,3S)-3-((5-chloro-4-(4,5,6,7-tetrahydropyrazolo[1,5-a]pyridin-3-yl)pyridin-2-yl)carbamoyl)cyclohexyl)tetrahydrofuran-3-carboxamide]	123 nM	139 nM	< 3 nM	28 nM
CC(=O)N[C@@H]1CCC[C@H](C(=O)Nc2cc(-c3cnn4c3CC(C)(C)C4)c(C#N)cn2)C1 [Example 39, (1S,3R)-3-acetamido-N-(5-cyano-4-(5,5-dimethyl-5,6-dihydro-4H-pyrrolo[1,2-b]pyrazol-3-yl)pyridin-2-yl)cyclohexanecarboxamide]	147 nM	145 nM	< 3 nM	62 nM
CC(=O)N[C@@H]1CCC[C@H](C(=O)Nc2cc(-c3cnn4c3CC(C)C4)c(Cl)cn2)C1 (stereo partly drawn) [Example 40, (1S,3R)-3-acetamido-N-(5-chloro-4-(5-methyl-5,6-dihydro-4H-pyrrolo[1,2-b]pyrazol-3-yl)pyridin-2-yl)cyclohexanecarboxamide]	57 nM	67 nM	< 3 nM	28 nM
CC(=O)N[C@@H]1CCC[C@H](C(=O)Nc2cc(-c3cnn4c3CC(C)(C)CC4)ccn2)C1 [Example 44, (1S,3R)-3-acetamido-N-(4-(5,5-dimethyl-4,5,6,7-tetrahydropyrazolo[1,5-a]pyridin-3-yl)pyridin-2-yl)cyclohexanecarboxamide]	48 nM	39 nM	< 3 nM	8 nM
CC1(C)Cc2c(-c3cc(NC(=O)[C@H]4CCC[C@@H](NC(=O)[C@@H]5CCCO5)C4)ncc3Cl)cnn2C1 [Example 45, (S)—N-((1R,3S)-3-((5-chloro-4-(5,5-dimethyl-5,6-dihydro-4H-pyrrolo[1,2-b]pyrazol-3-yl)pyridin-2-yl)carbamoyl)cyclohexyl)tetrahydrofuran-2-carboxamide]	12 nM	8 nM	< 3 nM	< 4 nM
CC1(C)Cc2c(-c3cc(NC(=O)[C@H]4CCC[C@@H](NC(=O)[C@H]5CCCO5)C4)ncc3Cl)cnn2C1 [Example 46, (R)—N-((1R,3S)-3-((5-chloro-4-(5,5-dimethyl-5,6-dihydro-4H-pyrrolo[1,2-b]pyrazol-3-yl)pyridin-2-yl)carbamoyl)cyclohexyl)tetrahydrofuran-2-carboxamide]	9 nM	12 nM	< 3 nM	< 4 nM
CC(=O)N[C@@H]1CC[C@H](C(=O)Nc2cc(-c3cnn4c3CC(C)(C)C4)c(Cl)cn2)C1 [Example 48, (1S,3R)-3-acetamido-N-(5-chloro-4-(5,5-dimethyl-5,6-dihydro-4H-pyrrolo[1,2-b]pyrazol-3-yl)pyridin-2-yl)cyclopentanecarboxamide]	40 nM	15 nM	< 3 nM	3 nM
CC(=O)N[C@@H]1CCC[C@H](C(=O)Nc2cc(-c3nnn4c3CCCC4)c(Cl)cn2)C1 [Example 49, (1S,3R)-3-acetamido-N-(5-chloro-4-(4,5,6,7-tetrahydro-[1,2,3]triazolo[1,5-a]pyridin-3-yl)pyridin-2-yl)cyclohexanecarboxamide]	> 2870 nM	7980 nM	39 nM	4400 nM
CC(=O)N[C@@H]1CCC[C@H](C(=O)Nc2cc(-c3cnc4n3CC(C)(C)C4)c(F)cn2)C1 [Example 50, (1S,3R)-3-acetamido-N-(4-(6,6-dimethyl-6,7-dihydro-5H-pyrrolo[1,2-a]imidazol-3-yl)-5-fluoropyridin-2-yl)cyclohexanecarboxamide]	19 nM	26 nM	< 3 nM	5 nM
CC(=O)N[C@@H]1CCC[C@H](C(=O)Nc2cc(-c3cnn4c3CC(C)(C)CC4)c(F)cn2)C1 [Example 51, (1S,3R)-3-acetamido-N-(4-(5,5-dimethyl-4,5,6,7-tetrahydropyrazolo[1,5-a]pyridin-3-yl)-5-fluoropyridin-2-yl)cyclohexanecarboxamide]	10 nM	15 nM	< 3 nM	< 3 nM
CC1(C)CCn2ncc(-c3cc(NC(=O)[C@H]4CCC[C@@H](N)C4)ncc3F)c2C1 [Example 51a, (1S,3R)-3-amino-N-(4-(5,5-dimethyl-4,5,6,7-tetrahydropyrazolo[1,5-a]pyridin-3-yl)-5-fluoropyridin-2-yl)cyclohexanecarboxamide]	292 nM	228 nM	< 3 nM	148 nM
CC1(C)Cc2c(-c3cc(NC(=O)[C@H]4CCC[C@@H](NC(=O)[C@H]5C[C@@H](O)C5)C4)ncc3Cl)cnn2C1 [Example 53, (1S,3R)—N-(5-chloro-4-(5,5-dimethyl-5,6-dihydro-4H-pyrrolo[1,2-b]pyrazol-3-yl)pyridin-2-yl)-3-(cis-3-hydroxycyclobutanecarboxamido)cyclohexanecarboxamide]	12 nM	13 nM	< 3 nM	< 3 nM
CC1(C)Cc2c(-c3cc(NC(=O)[C@H]4CCC[C@@H](N)C4)ncc3F)cnn2C1 [Example 54, (1S,3R)-3-amino-N-(4-(5,5-dimethyl-5,6-dihydro-4H-pyrrolo[1,2-b]pyrazol-3-yl)-5-fluoropyridin-2-yl)cyclohexane-1-carboxamide]	455 nM	431 nM	10 nM	777 nM
CC1(C)Cc2c(-c3cc(NC(=O)[C@H]4CCC[C@@H](NC(=O)C5(O)CC5)C4)ncc3F)cnn2C1 [Example 55, (1S,3R)—N-(4-(5,5-dimethyl-5,6-dihydro-4H-pyrrolo[1,2-b]pyrazol-3-yl)-5-fluoropyridin-2-yl)-3-(1-hydroxycyclopropanecarboxamido)cyclohexanecarboxamide]	7 nM	10 nM	< 3 nM	< 3 nM
CC1(C)Cc2ncc(-c3cc(NC(=O)[C@H]4CCC[C@@H](NC(=O)C5(O)CC5)C4)ncc3Cl)n2C1 [Example 56, (1S,3R)—N-(5-chloro-4-(6,6-dimethyl-6,7-dihydro-5H-pyrrolo[1,2-a]imidazol-3-yl)pyridin-2-yl)-3-(1-hydroxycyclopropanecarboxamido)cyclohexanecarboxamide]	29 nM	22 nM	< 3 nM	4 nM
CC1(C)Cc2ncc(-c3cc(NC(=O)[C@H]4CCC[C@@H](NC(=O)C5COC5)C4)ncc3Cl)n2C1 [Example 57, N-((1R,3S)-3-((5-chloro-4-(6,6-dimethyl-6,7-dihydro-5H-pyrrolo[1,2-a]imidazol-3-yl)pyridin-2-yl)carbamoyl)cyclohexyl)oxetane-3-carboxamide]	28 nM	53 nM	< 3 nM	4 nM
CC1(C)Cc2ncc(-c3cc(NC(=O)[C@H]4C[C@@H](O)C4)ncc3Cl)n2C1 [Example 58, cis-N-(5-chloro-4-(6,6-dimethyl-6,7-dihydro-5H-pyrrolo[1,2-a]imidazol-3-yl)pyridin-2-yl)-3-hydroxycyclobutanecarboxamide]	17 nM	76 nM	< 3 nM	41 nM
CC(=O)N[C@@H]1CCC[C@H](C(=O)Nc2cc(-c3cnn4c3CCCC4)c(F)cn2)C1 [Example 63, (1S,3R)-3-acetamido-N-(5-fluoro-4-(4,5,6,7-tetrahydropyrazolo[1,5-a]pyridin-3-yl)pyridin-2-yl)cyclohexanecarboxamide]	104 nM	159 nM	< 3 nM	51 nM
CC(=O)N[C@@H]1CCC[C@H](C(=O)Nc2cc(-c3cnn4c3CCCCC4)c(Cl)cn2)C1 [Example 66, (1S,3R)-3-acetamido-N-(5-chloro-4-(5,6,7,8-tetrahydro-4H-pyrazolo[1,5-a]azepin-3-yl)pyridin-2-yl)cyclohexanecarboxamide]	92 nM	183 nM	< 3 nM	23 nM
